Laboratory results taken from the CheMixHub viscosity set.

Assay: xn = mol fraction of the nth substance listed

CCCCCCO + COC(=O)OC
Conditions	viscosity [mPa·s]
293.15 K, 100 kPa, x2 = 0.1003	3.53
293.15 K, 100 kPa, x2 = 0.1998	2.47
293.15 K, 100 kPa, x2 = 0.3011	1.87
293.15 K, 100 kPa, x2 = 0.4001	1.51
293.15 K, 100 kPa, x2 = 0.5007	1.24
293.15 K, 100 kPa, x2 = 0.5987	0.95
293.15 K, 100 kPa, x2 = 0.7003	0.77
293.15 K, 100 kPa, x2 = 0.8013	0.71
293.15 K, 100 kPa, x2 = 0.9002	0.61
293.15 K, 101 kPa, x2 = 0.04349	4.578
293.15 K, 101 kPa, x2 = 0.1014	3.717
293.15 K, 101 kPa, x2 = 0.1936	2.761
293.15 K, 101 kPa, x2 = 0.3033	2.046
293.15 K, 101 kPa, x2 = 0.4078	1.6
293.15 K, 101 kPa, x2 = 0.5026	1.302
293.15 K, 101 kPa, x2 = 0.602	1.06
293.15 K, 101 kPa, x2 = 0.699	0.883
293.15 K, 101 kPa, x2 = 0.8055	0.756
293.15 K, 101 kPa, x2 = 0.9079	0.685
293.15 K, 101 kPa, x2 = 0.9562	0.648
298.15 K, 100 kPa, x2 = 0.1003	3.06
298.15 K, 100 kPa, x2 = 0.1998	2.17
298.15 K, 100 kPa, x2 = 0.3011	1.66
298.15 K, 100 kPa, x2 = 0.4001	1.34
298.15 K, 100 kPa, x2 = 0.5007	1.12
298.15 K, 100 kPa, x2 = 0.5987	0.92
298.15 K, 100 kPa, x2 = 0.7003	0.77
298.15 K, 100 kPa, x2 = 0.8013	0.66
298.15 K, 100 kPa, x2 = 0.9002	0.57
303.15 K, 100 kPa, x2 = 0.1003	2.67
303.15 K, 100 kPa, x2 = 0.1998	1.93
303.15 K, 100 kPa, x2 = 0.3011	1.48
303.15 K, 100 kPa, x2 = 0.4001	1.23
303.15 K, 100 kPa, x2 = 0.5007	1.02
303.15 K, 100 kPa, x2 = 0.5987	0.84
303.15 K, 100 kPa, x2 = 0.7003	0.72
303.15 K, 100 kPa, x2 = 0.8013	0.61
303.15 K, 100 kPa, x2 = 0.9002	0.54
303.15 K, 101 kPa, x2 = 0.04993	3.355
303.15 K, 101 kPa, x2 = 0.1121	2.759
303.15 K, 101 kPa, x2 = 0.1985	2.135
303.15 K, 101 kPa, x2 = 0.3013	1.623
303.15 K, 101 kPa, x2 = 0.4548	1.153
303.15 K, 101 kPa, x2 = 0.4939	1.069
303.15 K, 101 kPa, x2 = 0.5585	0.951
303.15 K, 101 kPa, x2 = 0.7038	0.747
303.15 K, 101 kPa, x2 = 0.7977	0.649
303.15 K, 101 kPa, x2 = 0.9079	0.571
303.15 K, 101 kPa, x2 = 0.9534	0.548
308.15 K, 100 kPa, x2 = 0.1003	2.35
308.15 K, 100 kPa, x2 = 0.1998	1.71
308.15 K, 100 kPa, x2 = 0.3011	1.33
308.15 K, 100 kPa, x2 = 0.4001	1.07
308.15 K, 100 kPa, x2 = 0.5007	0.93
308.15 K, 100 kPa, x2 = 0.5987	0.78
308.15 K, 100 kPa, x2 = 0.7003	0.67
308.15 K, 100 kPa, x2 = 0.8013	0.57
308.15 K, 100 kPa, x2 = 0.9002	0.53
313.15 K, 100 kPa, x2 = 0.1003	2.07
313.15 K, 100 kPa, x2 = 0.1998	1.53
313.15 K, 100 kPa, x2 = 0.3011	1.21
313.15 K, 100 kPa, x2 = 0.4001	0.99
313.15 K, 100 kPa, x2 = 0.5007	0.86
313.15 K, 100 kPa, x2 = 0.5987	0.72
313.15 K, 100 kPa, x2 = 0.7003	0.62
313.15 K, 100 kPa, x2 = 0.8013	0.53
313.15 K, 100 kPa, x2 = 0.9002	0.48
313.15 K, 101 kPa, x2 = 0.05023	2.521
313.15 K, 101 kPa, x2 = 0.1223	2.039
313.15 K, 101 kPa, x2 = 0.2131	1.599
313.15 K, 101 kPa, x2 = 0.3291	1.223
313.15 K, 101 kPa, x2 = 0.4005	1.061
313.15 K, 101 kPa, x2 = 0.4874	0.911
313.15 K, 101 kPa, x2 = 0.5997	0.76
313.15 K, 101 kPa, x2 = 0.6524	0.713
313.15 K, 101 kPa, x2 = 0.7994	0.572
313.15 K, 101 kPa, x2 = 0.9089	0.514
313.15 K, 101 kPa, x2 = 0.9495	0.501
318.15 K, 100 kPa, x2 = 0.1003	1.83
318.15 K, 100 kPa, x2 = 0.1998	1.37
318.15 K, 100 kPa, x2 = 0.3011	1.09
318.15 K, 100 kPa, x2 = 0.4001	0.91
318.15 K, 100 kPa, x2 = 0.5007	0.79
318.15 K, 100 kPa, x2 = 0.5987	0.67
318.15 K, 100 kPa, x2 = 0.7003	0.58
318.15 K, 100 kPa, x2 = 0.8013	0.51
318.15 K, 100 kPa, x2 = 0.9002	0.46
323.15 K, 100 kPa, x2 = 0.1003	1.63
323.15 K, 100 kPa, x2 = 0.1998	1.24
323.15 K, 100 kPa, x2 = 0.3011	0.99
323.15 K, 100 kPa, x2 = 0.4001	0.84
323.15 K, 100 kPa, x2 = 0.5007	0.73
323.15 K, 100 kPa, x2 = 0.5987	0.63
323.15 K, 100 kPa, x2 = 0.7003	0.55
323.15 K, 100 kPa, x2 = 0.8013	0.48
323.15 K, 100 kPa, x2 = 0.9002	0.43
